Measured values from patent publication US20210002301A1, “NOVEL ISOTHIAZOLO-AZEPINONE BICYCLES, PROCESSES FOR THEIR PREPARATION AND THEIR USE AS HERBICIDES AND/OR PLANT GROWTH REGULATORS” (Bayer Aktiengesellschaft, priority 2017, published 2021).

Assays:
Conditions in all cases: Dosage 320
ALOMY [1] = experiment: Post-emergence herbicidal test; format: in vivo, Alopecurus myosuroides
ECHCG [2] = experiment: Post-emergence herbicidal test; format: in vivo, Echinochloa crus-galli
SETVI [3] = experiment: Post-emergence herbicidal test; format: in vivo, Setaria viridis
ABUTH [4] = experiment: Post-emergence herbicidal test; format: in vivo, Abutilon theophrasti
AMARE [5] = experiment: Post-emergence herbicidal test; format: in vivo, Amaranthus retroflexus
PHBPU [6] = experiment: Post-emergence herbicidal test; format: in vivo, Pharbitis purpurea
POLCO [7] = experiment: Post-emergence herbicidal test; format: in vivo, Polygonum convolvulus
STEME [8] = experiment: Post-emergence herbicidal test; format: in vivo, Stellaria media
VIOTR [9] = experiment: Post-emergence herbicidal test; format: in vivo, Viola tricolor
VERPE [10] = experiment: Post-emergence herbicidal test; format: in vivo, Veronica persica
ALOMY [11] = experiment: Pre-emergence herbicidal test; format: in vivo, Alopecurus myosuroides
ECHCG [12] = experiment: Pre-emergence herbicidal test; format: in vivo, Echinochloa crus-galli
SETVI [13] = experiment: Pre-emergence herbicidal test; format: in vivo, Setaria viridis
ABUTH [14] = experiment: Pre-emergence herbicidal test; format: in vivo, Abutilon theophrasti
AMARE [15] = experiment: Pre-emergence herbicidal test; format: in vivo, Amaranthus retroflexus
PHBPU [16] = experiment: Pre-emergence herbicidal test; format: in vivo, Pharbitis purpurea
POLCO [17] = experiment: Pre-emergence herbicidal test; format: in vivo, Polygonum convolvulus
STEME [18] = experiment: Pre-emergence herbicidal test; format: in vivo, Stellaria media
VIOTR [19] = experiment: Pre-emergence herbicidal test; format: in vivo, Viola tricolor
VERPE [20] = experiment: Pre-emergence herbicidal test; format: in vivo, Veronica persica
LOLRI = experiment: Pre-emergence herbicidal test; format: in vivo
MATIN = experiment: Pre-emergence herbicidal test; format: in vivo, Matricaria inodora
HORMU = experiment: Pre-emergence herbicidal test; format: in vivo

## O=C(Nc1nsc2c1C=CCN(C1CCCCC1)C2=O)C(F)F [Example I-25]
ALOMY [1]
  ALOMY: 100
ECHCG [2]
  ECHCG: 100
SETVI [3]
  SETVI: 100
ABUTH [4]
  ABUTH: 100
AMARE [5]
  AMARE: 100
PHBPU [6]
  PHBPU: 100
POLCO [7]
  POLCO: 100
STEME [8]
  STEME: 100
VIOTR [9]
  VIOTR: 100
VERPE [10]
  VERPE: 90
ALOMY [11]
  ALOMY: 100
ECHCG [12]
  ECHCG: 100
SETVI [13]
  SETVI: 100
ABUTH [14]
  ABUTH: 100
AMARE [15]
  AMARE: 100
PHBPU [16]
  PHBPU: 100
POLCO [17]
  POLCO: 100
STEME [18]
  STEME: 100
VIOTR [19]
  VIOTR: 100
VERPE [20]
  VERPE: 100

## Nc1nsc2c1C=CCN(CC1CCCCC1)C2=O [Example I-04, 3-amino-7-(cyclohexylmethyl)-6H-isothiazolo[5,4-c]azepin-8-one]
ALOMY [1]
  ALOMY: 100
ECHCG [2]
  ECHCG: 100
SETVI [3]
  SETVI: 90
ABUTH [4]
  ABUTH: 100
AMARE [5]
  AMARE: 100
PHBPU [6]
  PHBPU: 100
POLCO [7]
  POLCO: 100
STEME [8]
  STEME: 100
VIOTR [9]
  VIOTR: 100
VERPE [10]
  VERPE: 90
ALOMY [11]
  ALOMY: 100
ECHCG [12]
  ECHCG: 100
LOLRI
  LOLRI: 100
SETVI [13]
  SETVI: 100
ABUTH [14]
  ABUTH: 100
AMARE [15]
  AMARE: 100
MATIN
  MATIN: 100
PHBPU [16]
  PHBPU: 100
POLCO [17]
  POLCO: 100
STEME [18]
  STEME: 100
VIOTR [19]
  VIOTR: 100
VERPE [20]
  VERPE: 100
HORMU
  HORMU: 90

## O=C1c2snc(NC(=O)C(F)(F)C(F)(F)F)c2C=CCN1CC1CCCCC1 [Example I-61]
ALOMY [1]
  ALOMY: 90
ECHCG [2]
  ECHCG: 90
SETVI [3]
  SETVI: 80
ABUTH [4]
  ABUTH: 80
AMARE [5]
  AMARE: 100
PHBPU [6]
  PHBPU: 90
POLCO [7]
  POLCO: 100
STEME [8]
  STEME: 100
VIOTR [9]
  VIOTR: 100
VERPE [10]
  VERPE: 90
ALOMY [11]
  ALOMY: 90
ECHCG [12]
  ECHCG: 100
LOLRI
  LOLRI: 100
SETVI [13]
  SETVI: 100
ABUTH [14]
  ABUTH: 100
AMARE [15]
  AMARE: 100
MATIN
  MATIN: 100
PHBPU [16]
  PHBPU: 100
POLCO [17]
  POLCO: 100
STEME [18]
  STEME: 100
VIOTR [19]
  VIOTR: 100
VERPE [20]
  VERPE: 100
HORMU
  HORMU: 100
